In general, IC50 refers to the midpoint of a concentration-inhibition curve. Low readings indicate greater potency, high ones weaker potency.

Data on 28 molecules can be found in patent publication US20260028365A1 (BIOGEN MA INC., priority 2022, published 2026).

In one experiment the target is JH2 domain of human Tyk2 (Homo sapiens (Human), UniProt P29597). The experiment can be described thus: JH2 Biochemical Assay (TR-FRET probe displacement). The experiment is classed as binding.
In a further experiment the target is Tyk2 (Homo sapiens (Human), UniProt P29597). As to the kind of experiment: pSTAT4 Cell Assay (MSD, NK92 cells). The experiment is classed as cell-based.
Sequence of Tyk2 (P29597 whole entry, the tested form may be a part): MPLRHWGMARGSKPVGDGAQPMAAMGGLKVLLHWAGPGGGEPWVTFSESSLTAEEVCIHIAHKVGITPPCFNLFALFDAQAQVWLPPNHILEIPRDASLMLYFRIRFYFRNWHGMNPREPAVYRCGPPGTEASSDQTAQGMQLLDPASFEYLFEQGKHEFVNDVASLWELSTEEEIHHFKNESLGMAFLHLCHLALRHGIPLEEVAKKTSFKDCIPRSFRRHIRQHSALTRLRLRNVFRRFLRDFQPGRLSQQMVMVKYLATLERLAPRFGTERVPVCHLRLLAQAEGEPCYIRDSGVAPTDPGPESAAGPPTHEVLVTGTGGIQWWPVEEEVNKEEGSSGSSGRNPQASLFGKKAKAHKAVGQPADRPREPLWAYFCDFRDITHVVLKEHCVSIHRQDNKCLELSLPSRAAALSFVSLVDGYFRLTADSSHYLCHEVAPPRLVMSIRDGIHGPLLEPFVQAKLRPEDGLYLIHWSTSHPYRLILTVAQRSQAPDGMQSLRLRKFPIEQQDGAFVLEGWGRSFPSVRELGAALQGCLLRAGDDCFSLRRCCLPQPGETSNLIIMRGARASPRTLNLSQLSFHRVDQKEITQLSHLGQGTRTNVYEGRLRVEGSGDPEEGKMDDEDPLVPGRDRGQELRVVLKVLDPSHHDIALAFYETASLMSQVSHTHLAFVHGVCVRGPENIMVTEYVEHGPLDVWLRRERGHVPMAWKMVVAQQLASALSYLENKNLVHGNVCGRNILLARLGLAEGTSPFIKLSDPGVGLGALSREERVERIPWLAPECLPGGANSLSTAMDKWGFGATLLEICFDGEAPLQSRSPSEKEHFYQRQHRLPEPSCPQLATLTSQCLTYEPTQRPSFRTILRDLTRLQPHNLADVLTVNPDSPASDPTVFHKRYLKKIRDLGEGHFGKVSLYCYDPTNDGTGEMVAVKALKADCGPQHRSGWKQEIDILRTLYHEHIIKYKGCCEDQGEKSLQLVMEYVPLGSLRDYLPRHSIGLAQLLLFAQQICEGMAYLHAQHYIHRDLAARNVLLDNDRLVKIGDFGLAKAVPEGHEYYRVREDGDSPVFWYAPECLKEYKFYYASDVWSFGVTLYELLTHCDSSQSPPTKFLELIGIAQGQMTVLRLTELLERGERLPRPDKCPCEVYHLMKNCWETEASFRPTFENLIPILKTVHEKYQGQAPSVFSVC
Where [1] appears, read: JH2 domain of human Tyk2, TR-FRET probe displacement.
The mark [2] stands for this setting: TR-FRET probe displacement, JH2 domain of human Tyk2.
[3] abbreviates: TR-FRET probe displacement, JH2 domain.

Where two headings read alike, the source gives them in different places. Bounds are passed on as bounds.

Sequence of JH2 domain of human Tyk2 (P29597 575-876): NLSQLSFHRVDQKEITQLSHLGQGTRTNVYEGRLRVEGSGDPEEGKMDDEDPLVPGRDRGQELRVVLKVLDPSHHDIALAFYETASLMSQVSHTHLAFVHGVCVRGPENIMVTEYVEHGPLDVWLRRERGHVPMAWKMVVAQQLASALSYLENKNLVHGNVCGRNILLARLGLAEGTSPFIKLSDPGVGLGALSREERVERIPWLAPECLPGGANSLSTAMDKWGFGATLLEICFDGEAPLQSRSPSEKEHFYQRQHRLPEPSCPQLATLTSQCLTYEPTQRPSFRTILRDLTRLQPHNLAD

As to `CC(=O)Nc1cc(Nc2ccnc(C(C)(F)F)n2)c(-c2cnc(COC(F)F)cn2)cn1` [Example 692, N-(4-((2-(1,1-difluoroethyl)pyrimidin-4-yl)amino)-5-(5-((difluoromethoxy)methyl)pyrazin-2-yl)pyridin-2-yl)acetamide], the concentration for half-maximal inhibition (IC50) on JH2 domain of human Tyk2 (setting [1]) was at most 10 nM; at Tyk2 (MSD), 100 to 1000 nM.
As to `CC(=O)Nc1cc(Nc2cc(C)nc(C(C)(F)F)n2)c(OCc2ccc3c(c2)OCO3)cn1` [Example 484, N-(5-(benzo[d][1,3]dioxol-5-ylmethoxy)-4-((2-(1,1-difluoroethyl)-6-methylpyrimidin-4-yl)amino)pyridin-2-yl)acetamide], the IC50 was at most 10 nM at JH2 domain of human Tyk2 (setting [1]) and 10 to 100 nM on Tyk2 (MSD).
Take `CC(=O)Nc1cc(Nc2cc(C)nc(C(C)(F)F)n2)c(OCc2cnn(C)c2C)cn1` [Example 138, N-(4-((2-(1,1-difluoroethyl)-6-methylpyrimidin-4-yl)amino)-5-((1,5-dimethyl-1H-pyrazol-4-yl)methoxy)pyridin-2-yl)acetamide]: the IC50 was 100 to 1000 nM on JH2 domain of human Tyk2 (setting [2]) and at least 1000 nM against Tyk2 (MSD).
Regarding `COc1cnc(NC(C)=O)cc1Nc1ccnc(C2CCOC2)n1` (centres unmarked) [Example 450, N-(5-methoxy-4-((2-(tetrahydrofuran-3-yl)pyrimidin-4-yl)amino)pyridin-2-yl)acetamide], the IC50 at JH2 domain of human Tyk2 (setting [1]) was 10 to 100 nM; on Tyk2 (MSD), at least 1000 nM.
Turning to `CC(=O)Nc1cc(Nc2cc(C)nc(C(C)(F)F)n2)c(-c2cc3n(n2)CCN(C)C3=O)cn1` [Example 541, N-(4-((2-(1,1-difluoroethyl)-6-methylpyrimidin-4-yl)amino)-5-(5-methyl-4-oxO4,5,6,7-tetrahydropyrazolo[1,5-a]pyrazin-2-yl)pyridin-2-yl)acetamide], the IC50 on JH2 domain of human Tyk2 (setting [1]) is at most 10 nM; against Tyk2 (MSD), 10 to 100 nM.
Regarding `COc1cnc(NC(C)=O)cc1Nc1cc(-c2cnn(C3COC3)c2)nc(C(C)(F)F)n1` [Example 377, N-(4-((2-(1,1-difluoroethyl)-6-(1-(oxetan-3-yl)-1H-pyrazol-4-yl)pyrimidin-4-yl)amino)-5-methoxypyridin-2-yl)acetamide], the IC50 on JH2 domain of human Tyk2 (setting [1]) and on Tyk2 (MSD) was 10 to 100 nM in each case.
For `CC(=O)Nc1cc(Nc2ccnc(C(C)(F)F)n2)c(-c2ccc(CN3C[C@@H]4C[C@H]3CO4)cn2)cn1` [Example 885, N-(5-(((1S,4S)-2-oxa-5-azabicyclo[2.2.1]heptan-5-yl)methyl)-4′-((2-(1,1-difluoroethyl)pyrimidin-4-yl)amino)-[2,3′-bipyridin]-6′-yl)acetamide], the IC50 on JH2 domain of human Tyk2 (setting [3]) and at Tyk2 was at most 10 nM each time.
For the molecule `CC(=O)Nc1cc(Nc2cc(C)nc(C(C)(F)F)n2)c(-n2cc3c(n2)CCN(C)C3)cn1` [Example 277, N-(4-((2-(1,1-difluoroethyl)-6-methylpyrimidin-4-yl)amino)-5-(5-methyl-4,5,6,7-tetrahydro-2H-pyrazolo[4,3-c]pyridin-2-yl)pyridin-2-yl)acetamide], the IC50 on JH2 domain of human Tyk2 (setting [2]) and against Tyk2 (MSD) was at most 10 nM throughout.
Turning to `COCn1ncc(-c2cnc(NC(C)=O)cc2Nc2ccnc(C(C)(F)F)n2)n1` [Example 711, N-(4-((2-(1,1-difluoroethyl)pyrimidin-4-yl)amino)-5-(2-(methoxymethyl)-2H-1,2,3-triazol-4-yl)pyridin-2-yl)acetamide], the IC50 was at most 10 nM at JH2 domain of human Tyk2 (setting [1]) and 10 to 100 nM on Tyk2 (MSD).
Consider `CC(=O)Nc1cc(Nc2cncc(C(C)(C)F)c2)c(-c2ccc(C(C)(C)O)cn2)cn1` [Example 722, N-(4′-((5-(2-fluoropropan-2-yl)pyridin-3-yl)amino)-5-(2-hydroxypropan-2-yl)-[2,3′-bipyridin]-6′-yl)acetamide], for which the IC50 on JH2 domain of human Tyk2 (setting [1]) and on Tyk2 (MSD) was at most 10 nM throughout.
For the molecule `CCc1cc(Nc2cc(NC(C)=O)ncc2-c2cnc(C(C)(C)O)cn2)nc(C(C)(F)F)n1` [Example 855, N-(4-((2-(1,1-difluoroethyl)-6-ethylpyrimidin-4-yl)amino)-5-(5-(2-hydroxypropan-2-yl)pyrazin-2-yl)pyridin-2-yl)acetamide], the IC50 at JH2 domain of human Tyk2 (setting [3]) and against Tyk2 was at most 10 nM throughout.
Take `CC(=O)Nc1cc(Nc2cc(C)nc(C(C)(C)F)n2)c(-c2ccn3ccnc3n2)cn1` [Example 533, N-(4-((2-(2-fluoropropan-2-yl)-6-methylpyrimidin-4-yl)amino)-5-(imidazo[1,2-a]pyrimidin-7-yl)pyridin-2-yl)acetamide]: the IC50 on JH2 domain of human Tyk2 (setting [1]) and at Tyk2 (MSD) was at most 10 nM throughout.
For the molecule `COc1ccnc(Nc2cc(NC(C)=O)ncc2-c2ccn(C)n2)n1` [Example 553, N-(4-((4-methoxypyrimidin-2-yl)amino)-5-(1-methyl-1H-pyrazol-3-yl)pyridin-2-yl)acetamide], the IC50 at JH2 domain of human Tyk2 (setting [1]) was in the range of 10 to 100 nM; at Tyk2 (MSD), 100 to 1000 nM.
In the case of `CC(=O)Nc1cc(Nc2ccnc(C(C)(F)F)n2)c(-c2ccc(N3CCC4(COC4)C3)nn2)cn1` [Example 890, N-(5-(6-(2-oxa-6-azaspiro[3.4]octan-6-yl)pyridazin-3-yl)-4-((2-(1,1-difluoroethyl)pyrimidin-4-yl)amino)pyridin-2-yl)acetamide], the IC50 on JH2 domain of human Tyk2 (setting [3]) and against Tyk2 was at most 10 nM in each case.
For `CCc1cnc(NC(C)=O)cc1Nc1cc(C)nc(C(C)(F)F)n1` [Example 42, N-(4-((2-(1,1-difluoroethyl)-6-methylpyrimidin-4-yl)amino)-5-ethylpyridin-2-yl)acetamide], the results for the IC50 on JH2 domain of human Tyk2 (setting [2]) and at Tyk2 (MSD) were 10 to 100 nM and at least 1000 nM, respectively.
Take `CC(=O)Nc1cc(Nc2cc(C)nc(C(C)(F)F)n2)c(-c2cc(C(C)N(C)C)ccn2)cn1` (centres unmarked) [Example 743, N-(4′-((2-(1,1-difluoroethyl)-6-methylpyrimidin-4-yl)amino)-4-(1-(dimethylamino)ethyl)-[2,3′-bipyridin]-6′-yl)acetamide]: the IC50 at JH2 domain of human Tyk2 (setting [1]) was at most 10 nM; against Tyk2 (MSD) it was 10 to 100 nM.
Consider `CNC(=O)Nc1cc(Nc2ccnc(C(C)(F)F)n2)c(-c2nc3c(s2)CN(C)CC3)cn1` [Example 795, 1-(4-((2-(1,1-difluoroethyl)pyrimidin-4-yl)amino)-5-(5-methyl-4,5,6,7-tetrahydrothiazolo[5,4-c]pyridin-2-yl)pyridin-2-yl)-3-methylurea], for which the 50% inhibitory concentration (IC50) on JH2 domain of human Tyk2 (setting [3]) and against Tyk2 was at most 10 nM each time.
`CC(=O)Nc1cc(Nc2cccc(C(C)(F)F)n2)c(-c2ccnc(C)n2)cn1` [Example 172, N-(4-((6-(1,1-difluoroethyl)pyridin-2-yl)amino)-5-(2-methylpyrimidin-4-yl)pyridin-2-yl)acetamide]: the IC50 on JH2 domain of human Tyk2 (setting [2]) and against Tyk2 (MSD) was at most 10 nM throughout.
With `CC(=O)Nc1cc(Nc2cc(C)nc(C(C)(F)F)n2)c(-c2cnc(C(C)N(C)C)cn2)cn1` (centres unmarked) [Example 741, N-(4-((2-(1,1-difluoroethyl)-6-methylpyrimidin-4-yl)amino)-5-(5-(1-(dimethylamino)ethyl)pyrazin-2-yl)pyridin-2-yl)acetamide], the IC50 on JH2 domain of human Tyk2 (setting [1]) and at Tyk2 (MSD) was at most 10 nM in each case.
Take `COC1CCN(c2ccc(-c3cnc(NC(C)=O)cc3Nc3ccnc(C(C)(F)F)n3)nn2)C1` (racemic) [Example 873, rac-(R)-N-(4-((2-(1,1-difluoroethyl)pyrimidin-4-yl)amino)-5-(6-(3-methoxypyrrolidin-1-yl)pyridazin-3-yl)pyridin-2-yl)acetamide]: the IC50 at JH2 domain of human Tyk2 (setting [3]) and against Tyk2 was at most 10 nM each time.
For the molecule `COc1cnc(NC(C)=O)cc1Nc1cc(-c2cnn(CC3CC3)c2)nc(C(C)(F)F)n1` [Example 378, N-(4-((6-(1-(cyclopropylmethyl)-1H-pyrazol-4-yl)-2-(1,1-difluoroethyl)pyrimidin-4-yl)amino)-5-methoxypyridin-2-yl)acetamide], the 50% inhibitory concentration (IC50) was at most 10 nM at JH2 domain of human Tyk2 (setting [1]) and 10 to 100 nM against Tyk2 (MSD).
Take `CC(=O)Nc1cc(Nc2ccnc(C(C)(F)F)n2)c(-c2csc(C#N)n2)cn1` [Example 790, N-(5-(2-cyanothiazol-4-yl)-4-((2-(1,1-difluoroethyl)pyrimidin-4-yl)amino)pyridin-2-yl)acetamide]: the 50% inhibitory concentration (IC50) on JH2 domain of human Tyk2 (setting [3]) and on Tyk2 was at most 10 nM each time.
In the case of `CC(=O)Nc1cc(Nc2cc(C)nc(C(C)(F)F)n2)c(O[C@H]2C[C@@H](F)C2)cn1` [Example 412, N-(4-((2-(1,1-difluoroethyl)-6-methylpyrimidin-4-yl)amino)-5-((1s,3s)-3-fluorocyclobutoxy)pyridin-2-yl)acetamide], the IC50 on JH2 domain of human Tyk2 (setting [1]) is at most 10 nM; on Tyk2 (MSD), 10 to 100 nM.
With `CC(=O)Nc1cc(Nc2cc(C)nc(C(C)(F)F)n2)c(OCc2ncc(C3CC3)o2)cn1` [Example 342, N-(5-((5-cyclopropyloxazol-2-yl)methoxy)-4-((2-(1,1-difluoroethyl)-6-methylpyrimidin-4-yl)amino)pyridin-2-yl)acetamide], the figures for the IC50 on JH2 domain of human Tyk2 (setting [2]) and against Tyk2 (MSD) were at most 10 nM and 100 to 1000 nM, respectively.
With `CC(=O)Nc1cc(Nc2cc(C)nc(C(C)(F)F)n2)c(OC[C@H](C)OC(C)(C)C)cn1` [Example 318, (S)-N-(5-(2-(tert-butoxy)propoxy)-4-((2-(1,1-difluoroethyl)-6-methylpyrimidin-4-yl)amino)pyridin-2-yl)acetamide], the values for the IC50 at JH2 domain of human Tyk2 (setting [2]) and at Tyk2 (MSD) were at most 10 nM and 100 to 1000 nM, respectively.
As for `COC(C)(C)COc1cnc(NC(C)=O)cc1Nc1cc(C)nc(C(C)(F)F)n1` [Example 492, N-(4-((2-(1,1-difluoroethyl)-6-methylpyrimidin-4-yl)amino)-5-(2-methoxy-2-methylpropoxy)pyridin-2-yl)acetamide], the IC50 is at most 10 nM at JH2 domain of human Tyk2 (setting [1]) and 10 to 100 nM at Tyk2 (MSD).
The corresponding values for `CC(=O)Nc1cc(Nc2cc(C)nc(C(C)(F)F)n2)c(OCc2ccon2)cn1` [Example 495, N-(4-((2-(1,1-difluoroethyl)-6-methylpyrimidin-4-yl)amino)-5-(isoxazol-3-ylmethoxy)pyridin-2-yl)acetamide] are at most 10 nM and 10 to 100 nM.
Regarding `CC(=O)Nc1cc(Nc2ccnc(C(C)(F)F)n2)c(-c2ccc(N3CC4(CCOC4)C3)nn2)cn1` [Example 877, N-(5-(6-(6-oxa-2-azaspiro[3.4]octan-2-yl)pyridazin-3-yl)-4-((2-(1,1-difluoroethyl)pyrimidin-4-yl)amino)pyridin-2-yl)acetamide], the IC50 on JH2 domain of human Tyk2 (setting [3]) and against Tyk2 was at most 10 nM in each case.
